{"source": "patent US9102688B2", "about": "“Sulfonaminoquinoline hepcidin antagonists” (Vifor (International) AG, priority 2011, dated 2015)", "data": [{"target": "T1, human ferroportin (Homo sapiens, UniProt Q9NP59)", "T1 construct": "expressed in transfected cells", "T1 sequence (Q9NP59 1-571)": "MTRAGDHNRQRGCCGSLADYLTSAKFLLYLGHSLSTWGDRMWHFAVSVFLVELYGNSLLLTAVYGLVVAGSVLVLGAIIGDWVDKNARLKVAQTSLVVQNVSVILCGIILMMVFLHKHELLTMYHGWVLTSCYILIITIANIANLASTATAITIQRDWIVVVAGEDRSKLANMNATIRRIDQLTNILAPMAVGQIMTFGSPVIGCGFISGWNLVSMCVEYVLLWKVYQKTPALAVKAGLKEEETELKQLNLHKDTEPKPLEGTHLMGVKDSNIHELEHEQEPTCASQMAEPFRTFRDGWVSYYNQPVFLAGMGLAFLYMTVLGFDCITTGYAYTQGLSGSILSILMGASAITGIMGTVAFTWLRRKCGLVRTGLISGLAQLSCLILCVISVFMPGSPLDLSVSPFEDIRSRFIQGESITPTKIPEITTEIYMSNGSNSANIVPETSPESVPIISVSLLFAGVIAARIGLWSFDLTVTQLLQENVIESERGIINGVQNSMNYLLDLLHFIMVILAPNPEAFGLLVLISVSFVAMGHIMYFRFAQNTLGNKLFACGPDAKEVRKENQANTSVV", "assay": "ferroportin internalization assay (inhibition of hepcidin-induced internalization of Fpn)", "format": "cell-based", "conditions": "MDCK-FPN-HaloTag cells, 100 nM hepcidin, overnight incubation; concentration range from 0.04 to 40 μM", "procedure": "The hepcidin-antagonistic action of the sulfonaminoquinoline compounds of the present invention was determined by means of the “ferroportin internalization assay” described in the following.\nOrganic compounds of low molecular weight which counteract the biological actions of hepcidin on its receptor, the iron exporter ferroportin (Fpn), were identified on the basis of their ability to inhibit hepcidin-induced internalization of Fpn in living cells. For this purpose, a stable cell line (Madin-Darby canine kidney, MDCK) was produced which constitutively expresses human ferroportin fused recombinantly at its C terminus with a fluorescent reporter protein (HaloTag®, Promega Corp.). The internalization of Fpn was monitored by labelling these cells with fluorescent ligands (HaloTag®-TMR, tetramethylrhodamine) which join covalently on to the HaloTag reporter gene fused with the Fpn. […] Optimized image analysis algorithms were used to ascertain the cell surface and to quantify the corresponding membrane fluorescence associated with the Fpn-HaloTag fusion protein. This assay allows a quantitative image-based analysis in order to quickly evaluate compounds which can block hepcidin-induced internalization of Fpn. This assay is a direct in vitro pendant of the in vivo action mechanism proposed for medicament candidates and is therefore suitable as an initial assay with a high throughput for identifying compounds which counteract the action of hepcidin on its receptor ferroportin.\n• 7,500 cells per well (MDCK-FPN-HaloTag) were transinoculated in 50 μl of DMEM medium (Dulbeccos Modified Eagle Medium with 10% foetal bovine serum (FBS), which contained 1% penicillin, 1% streptomycin and 450 μg/ml of G-418) in microtitre plates with 384 wells (384 Cell carrier plates, Perkin Elmer, cat. no. 6007430), followed by incubation overnight at 37° C./5% CO2. • The volume of the medium was reduced to 10 μl, and 10 μl of 5 μM HaloTag-TMR ligands (Promega, cat. no. G 8251) were added in DMEM medium in order to stain the Fpn-HaloTag fusion protein. • 15 min incubation at 37° C./5% CO2 • The HaloTag-TMR ligand was removed and the cells were washed with fresh DMEM medium and the volume was reduced to 20 μl of DMEM medium. • 3 μl per well of a solution of the test compound (dissolved DMSO) were added ([…]). • 7 μl of […] hepcidin (Peptides International, cat. no. PLP-4392-s, 100 μM stock solution diluted in water in DMEM medium) were added per well up to a final hepcidin concentration of 100 nM. • The cells were incubated overnight at 37° C./5% CO2. • The cells were fixed by adding paraformaldehyde (PFA, Electron Microscopy Sciences, cat. no. 15710-S) directly to the cells up to a final concentration of 4%, followed by incubation at room temperature for 15-20 minutes. • The PFA solution was removed and the cells were washed with PBS (phosphate-buffered saline solution), in each case 30 μl remaining in the plate. • 20 μl of Draq5 (Biostatus, cat. no. DR 51000) were added up to a final concentration of 2.5 μM in order to stain the cell nuclei, and the plates were sealed with a foil plate seal. • The plates were analysed with the Opera Plate Imager (Opera Confocal Plate Imager, Perkin Elmer) with 7 images per well; 440 ms exposure time per image, […] focal point height.", "units": {"IC50": "nM"}, "values": [{"smiles": "CC(=O)Nc1ccccc1S(=O)(=O)Nc1cccc2cccnc12", "note": "[Example 50, N-[2-(Quinolin-8-ylsulfamoyl)-phenyl]-acetamide]", "IC50": 1370}, {"smiles": "O=S(=O)(Nc1cccc2cccnc12)c1cccc(OC(F)(F)F)c1", "note": "[Example 38, N-Quinolin-8-yl-3-trifluoromethoxy-benzenesulfonamide]", "IC50": 1200}, {"smiles": "Cc1ccc2c(c1)-c1ccc3cccnc3c1NS2(=O)=O", "note": "[Example 327, 9-Methyl-5H-6-thia-4,5-diaza-chrysene 6,6-dioxide]", "IC50": 3200}, {"smiles": "Cc1ccc(NS(=O)(=O)c2ccccc2)c2ncccc12", "note": "[Example 90, N-(5-Methyl-quinolin-8-yl)-benzenesulfonamide]", "IC50": 1100}, {"smiles": "COc1ccc(C2c3ccc4cccnc4c3NS(=O)(=O)N2C)cc1", "note": "(centres unmarked) [Example 390, 1-(4-Methoxy-phenyl)-2-methyl-1,4-dihydro-2H-3-thia-2,4,5-triaza-phenanthrene 3,3-dioxide]", "IC50": 2240}, {"smiles": "CNC(=O)c1ccnc2c(NS(=O)(=O)c3ccccc3)cccc12", "note": "[Example 538, 8-Benzenesulfonylamino-quinoline-4-carboxylic acid methylamide]", "IC50": 6240}, {"smiles": "Cc1cccc(S(=O)(=O)Nc2cccc3cccnc23)n1", "note": "[Example 228, 6-Methyl-pyridine-2-sulfonic acid quinolin-8-ylamide]", "IC50": 15400}, {"smiles": "N#Cc1ccc(S(=O)(=O)Nc2cccc3cccnc23)cn1", "note": "[Example 116, 6-Cyano-pyridine-3-sulfonic acid quinolin-8-ylamide]", "IC50": 4260}, {"smiles": "Cc1ccc2c(c1)S(=O)(=O)Nc1c-2ccc2cccnc12", "note": "[Example 329, 8-Methyl-5H-6-thia-4,5-diaza-chrysene 6,6-dioxide]", "IC50": 360}, {"smiles": "COC(=O)c1cccc(S(=O)(=O)Nc2cccc3cccnc23)c1", "note": "[Example 40, 3-(Quinolin-8-ylsulfamoyl)-benzoic acid methyl ester]", "IC50": 1420}, {"smiles": "N#Cc1ccc(S(=O)(=O)Nc2ccc(C(F)(F)F)c3cccnc23)cn1", "note": "[Example 240, 6-Cyano-pyridine-3-sulfonic acid (5-trifluoromethyl-quinolin-8-yl)-amide]", "IC50": 2600}, {"smiles": "COC(=O)c1ccccc1S(=O)(=O)Nc1cccc2cccnc12", "note": "[Example 39, 2-(Quinolin-8-ylsulfamoyl)-benzoic acid methyl ester]", "IC50": 58100}, {"smiles": "O=S(=O)(Nc1ccc(Cl)c2cccnc12)c1ccc(Cl)cc1F", "note": "[Example 54, 4-Chloro-N-(5-chloro-quinolin-8-yl)-2-fluoro-benzenesulfonamide]", "IC50": 1380}, {"smiles": "Cc1cnc2c(NS(=O)(=O)c3ccccc3)cccc2c1", "note": "[Example 45, N-(3-Methyl-quinolin-8-yl)-benzenesulfonamide]", "IC50": 610}, {"smiles": "O=S(=O)(Nc1cccc2cccnc12)c1cncc(C(F)(F)F)c1", "note": "[Example 229, 5-Trifluoromethyl-pyridine-3-sulfonic acid quinolin-8-ylamide]", "IC50": 3980}, {"smiles": "O=S1(=O)Nc2c(cc(Br)c3cccnc23)-c2ccccc21", "note": "[Example 545, 12-Bromo-5H-6-thia-4,5-diaza-chrysene 6,6-dioxide]", "IC50": 12600}, {"smiles": "COc1ccc(C2c3ccc4cccnc4c3NS(=O)(=O)N2C)cc1F", "note": "(centres unmarked) [Example 396, 1-(3-Fluoro-4-methoxy-phenyl)-2-methyl-1,4-dihydro-2H-3-thia-2,4,5-triaza-phenanthrene 3,3-dioxide]", "IC50": 1480}, {"smiles": "Cc1ccc(S(=O)(=O)Nc2c(Cl)cc(Cl)c3cccnc23)cc1", "note": "[Example 51, N-(5,7-Dichloro-quinolin-8-yl)-4-methyl-benzenesulfonamide]", "IC50": 79000}, {"smiles": "O=S1(=O)Nc2c(ccc3c(-n4cccn4)ccnc23)-c2ccccc21", "note": "[Example 494, 1-Pyrazol-1-yl-5H-6-thia-4,5-diaza-chrysene 6,6-dioxide]", "IC50": 3530}, {"smiles": "COCCNc1ccc2c(c1)-c1cc(Cl)c3cccnc3c1NS2(=O)=O", "note": "[Example 507, (12-Chloro-6,6-dioxo-5,6-dihydro-6λ*6*-thia-4,5-diaza-chrysen-9-yl)-(2-methoxy-ethyl)-amine]", "IC50": 1980}, {"smiles": "O=S(=O)(Nc1cccc2cccnc12)c1ccc(Cl)cc1", "note": "[Example 5, 4-Chloro-N-quinolin-8-yl-benzenesulfonamide]", "IC50": 3200}, {"smiles": "O=S1(=O)Nc2c(ccc3cccnc23)-c2cccnc21", "note": "[Example 318, 11H-12-Thia-1,10,11-triaza-chrysene 12,12-dioxide]", "IC50": 6150}, {"smiles": "N#Cc1ccc(S(=O)(=O)Nc2cc(F)cc3cccnc23)cn1", "note": "[Example 239, 6-Cyano-pyridine-3-sulfonic acid (6-fluoro-quinolin-8-yl)-amide]", "IC50": 3750}, {"smiles": "O=S(=O)(Nc1cc(OC(F)(F)F)cc2cccnc12)c1cccnc1", "note": "[Example 237, Pyridine-3-sulfonic acid (6-trifluoromethoxy-quinolin-8-yl)-amide]", "IC50": 3840}, {"smiles": "N#Cc1cccc(S(=O)(=O)Nc2cccc3cccnc23)c1", "note": "[Example 16, 3-Cyano-N-quinolin-8-yl-benzenesulfonamide]", "IC50": 413}, {"smiles": "CC(O)c1cc2c(c3ncccc13)NS(=O)(=O)N(C)C2c1ccc(F)cc1", "note": "(centres unmarked) [Example 403, 1-[1-(4-Fluoro-phenyl)-2-methyl-3,3-dioxo-1,2,3,4-tetrahydro-3λ*6*-thia-2,4,5-triaza-phenanthren-9-yl]-ethanol]", "IC50": 2370}, {"smiles": "O=S1(=O)NCc2ccc3cccnc3c2N1", "note": "[Example 114, 1,4-Dihydro-2H-3-thia-2,4,5-triaza-phenanthrene 3,3-dioxide]", "IC50": 39500}, {"smiles": "Cc1cc(F)ccc1C1c2ccc3cccnc3c2NS(=O)(=O)N1C", "note": "(centres unmarked) [Example 395, 1-(4-Fluoro-2-methyl-phenyl)-2-methyl-1,4-dihydro-2H-3-thia-2,4,5-triaza-phenanthrene 3,3-dioxide]", "IC50": 1500}, {"smiles": "Cc1cc2c(cc1C)S(=O)(=O)Nc1c-2ccc2cccnc12", "note": "[Example 104, 8,9-Dimethyl-5H-6-thia-4,5-diaza-chrysene 6,6-dioxide]", "IC50": 4020}, {"smiles": "O=S1(=O)Nc2c(cc(Cl)c3cccnc23)-c2cc(N3CCOCC3)ccc21", "note": "[Example 509, 12-Chloro-9-morpholin-4-yl-5H-6-thia-4,5-diaza-chrysene 6,6-dioxide]", "IC50": 1620}, {"smiles": "CN(C)C(=O)c1ccc2c(c1)-c1cc(Cl)c3cccnc3c1NS2(=O)=O", "note": "[Example 525, 12-Chloro-6,6-dioxo-5,6-dihydro-6λ*6*-thia-4,5-diaza-chrysene-9-carboxylic acid dimethylamide]", "IC50": 4060}, {"smiles": "CN1C(c2ccc(F)cc2)c2ccc3cccnc3c2NS1(=O)=O", "note": "(centres unmarked) [Example 382, 1-(4-Fluoro-phenyl)-2-methyl-1,4-dihydro-2H-3-thia-2,4,5-triaza-phenanthrene 3,3-dioxide]", "IC50": 340}, {"smiles": "COc1cc(NS(=O)(=O)c2cccnc2)c2ncccc2c1", "note": "[Example 59, Pyridine-3-sulfonic acid (6-methoxy-quinolin-8-yl)-amide]", "IC50": 2800}, {"smiles": "Cc1cnc2c(NS(=O)(=O)c3ccc(C(F)(F)F)cc3N)cccc2c1", "note": "[Example 73, 2-Amino-N-(3-methyl-quinolin-8-yl)-4-trifluoromethyl-benzenesulfonamide]", "IC50": 3000}, {"smiles": "COc1ccc(S(=O)(=O)Nc2cccc3cccnc23)c([N+](=O)[O-])c1", "note": "[Example 34, 4-Methoxy-2-nitro-N-quinolin-8-yl-benzenesulfonamide]", "IC50": 1810}]}]}
